“Also recorded” adds a separate entry of the source.
Legend:
[1] = system: adult and elderly subjects with insomnia disorder; test: Phase 3 double-blind placebo-controlled polysomnography study, Example A (NCT03545191), 25 mg and 50 mg; assay type: in vivo, human; details: for IDSIQ sleepiness domain score: month 1 and month 3
Protocol: (§1) Daridorexant entered two phase 3 multi-center, double-blind, randomized, placebo-controlled, parallel-group, polysomnography study to assess the efficacy and safety of ACT-541468 in adult and elderly subjects with insomnia disorder. (NCT03545191, EudraCT Number: 2017-004642-20 testing strengths of 25 mg and 50 mg; and NCT03575104, EudraCT Number: 2017-004643-20 testing strengths of 10 mg and 25 mg). To assess daytime functioning, said phase 3 studies investigate as a secondary endpoint the IDSIQ sleepiness domain score, using as a dedicated patient reported outcome (PRO) instrument the Insomnia Daytime Symptoms and Impacts Questionnaire (IDSIQ) (S. Hudgens et al., The Patient—Patient-Centered Outcomes Research (2021) 14:249-268). The instrument is based on the Daytime Insomnia Symptom Scale (DISS) (Buysse et al., Sleep Medicine 8 (2007) 198-208; Buysse et al., SLEEP 29(9) (2006) 1155-1173) and designed to characterize and compare daytime symptoms in insomnia. The IDSIQ is structured in three domains (alertness/cognition; (negative) mood; tiredness/sleepiness) and contains overall 14 items, each based on an 11-point numeric rating scale. For each domain score the total rating score of all associated items is considered.
Example A): Multi-Center, Double-Blind, Randomized, Placebo-Controlled, Parallelgroup, Polysomnography Study to Assess the Efficacy and Safety of ACT-541468 in Adult and Elderly Subjects with Insomnia Disorder
The study comprises the following 3 phases: the screening phase, the treatment phase, and the safety follow-up phase. The screening phase starts with the signature of the informed consent form at Visit 1 and ends at Randomization (Visit 4), provided the subject fulfills all the eligibility criteria. It includes the Screening period and the Run-in period. The screening phase lasts […]. The Screening period starts with Visit 1 and ends at Visit 2. During the Screening period, the investigator verifies eligibility criteria and eligible subjects perform a one-night polysomnography (PSG) assessment. The Screening period lasts 7 to 18 days to allow time to perform all required procedures at Visit 1, the PSG assessment and collect the minimum number of eDiary entries (i.e., 7 days) between Visit 1 and Visit 2. The Run-in period starts with Visit 2 and ends at Randomization (i.e., Visit 4). At Visit 2 eligible subjects are allocated a single-blinded placebo treatment that is taken daily. During the Run-in period subjects come to the site for Visit 3, which consists of 2 PSG nights and is performed when the subject has completed the eDiary for at least 7 days and eligibility is confirmed. The Run-in period lasts 13 to 24 days, to allow collection of the minimum number of eDiary entries (i.e., 7 days), perform 2 PSG nights at Visit 3, and receive the eligibility confirmation from the PSG central reader. The double-blind (DB) treatment phase lasts 3 months. It starts at Randomization (Visit 4). DB study treatment is taken daily. A safety telephone call is performed at Visit 5 to collect information about adverse events (AEs) and concomitant medications. Sleep parameters of each subject are objectively assessed with 2 consecutive PSG nights at Visit 6 and Visit 8. A safety visit without PSG night is performed at Visit 7. An eDiary is completed every day during the treatment phase. End-of-Double-Blind-Treatment (EODBT) is reached in the second morning of Visit 8. The safety follow-up phase starts after EODBT. It consists of a single-blind placebo run-out period of 7 days and a safety follow-up period. The Run-out period starts in the evening of Visit 9. Visit 9 consists of one PSG night on single-blind placebo treatment. Visit 9 is followed by 6 days at home with single-blind placebo treatment. The eDiary is completed every day during the Run-out period. The end of the Run-out period (End-of-Treatment [EOT]) is reached after all visit assessments have been performed at Visit 10. […]

[2] = system: adult and elderly subjects with insomnia disorder; test: Phase 3 double-blind placebo-controlled polysomnography study, Example B (NCT03575104), 10 mg and 25 mg; assay type: in vivo, human
Protocol: as §1
Example B): Multi-Center, Double-Blind, Randomized, Placebo-Controlled, Parallelgroup, Polysomnography Study to Assess the Efficacy and Safety of ACT-541468 in Adult and Elderly Subjects with Insomnia Disorder
The study (NCT03575104) is conducted in analogy to the study of Example A), using daridorexant strengths of 10 mg and 25 mg.

[3] = system: animal model of agitation; details: in vivo; cited from earlier work
rat = details: cited from earlier work
[4] = system: subjects with insomnia disorder; details: cited from earlier work; for visual analog scales (VASs) on morning sleepiness, daytime alertness, and daytime ability to function: compared with placebo at week 2, higher doses, not sustained at week 4
[5] = in vivo; cited from earlier work
[6] = 25 mg and 50 mg once daily in the evening, Month 1 and Month 3, vs placebo
[7] = both doses (25 mg, 50 mg), all timepoints, vs placebo
[8] = 10 mg, month 1 and month 3, vs placebo
[9] = 25 mg, month 1 and month 3, vs placebo

Compound: COc1ccc(-n2nccn2)c(C(=O)N2CCC[C@@]2(C)c2nc3c(C)c(Cl)ccc3[nH]2)c1 [daridorexant, [(S)-2-(5-Chloro-4-methyl-1H-benzoimidazol-2-yl)-2-methyl-pyrrolidin-1-yl]-(5-methoxy-2-[1,2,3]triazol-2-yl-phenyl)-methanone]
- change from baseline in LPS (latency to persistent sleep, sleep onset) [1, 6]: significant reductions
- change from baseline in WASO (wake time after sleep onset, sleep maintenance) [1, 6]: significant reductions
- change from baseline in subjective total sleep time (sTST) [1, 6]: increased the subjective total sleep time (sTST) significantly
- incidence of somnolence ([1]; 25 mg and 50 mg vs placebo): low (lower with daridorexant 50 mg versus placebo) and not dose dependent
- IDSIQ sleepiness domain score ([1]; 25 mg, vs placebo): numerical trend; also recorded: numerical improvement
- falls ([1]; 50 mg dose group compared to placebo): Fewer falls
- IDSIQ sleepiness domain score ([1]; 50 mg, vs placebo): significantly improved
- daytime functioning over time ([1]; 3 months of treatment): gradual improvement
- improvements in sleep (WASO, LPS, sTST) over time ([1]; 3 months of treatment): maintained over 3 months; also recorded: maintained over three months
- tolerability / safety profile ([1]; adult and elderly patients): well tolerated
- IDSIQ alert/cognition domain score [1, 7]: decreased; also recorded: improved
- IDSIQ mood domain score [1, 7]: decreased; also recorded: improved
- IDSIQ total score [1, 7]: decreased; also recorded: improved
- rate of adverse events ([1]; both treatment doses vs placebo): comparable between placebo and daridorexant
- next-morning sleepiness effect assessed by visual analog scale (VAS) ([1]; every morning): no next-morning sleepiness effect
- most frequent treatment-emergent adverse events (TEAEs) ([1]; in vivo): nasophyringitis and headache
- suicide, suicidal ideation, or self-injury ([1]; in vivo): no suicide, suicidal ideation, or self-injury
- number of serious adverse events ([1]; placebo group compared to daridorexant treatment groups): higher in the placebo group
- rebound insomnia or withdrawal symptoms upon discontinuation ([1]; upon discontinuation): no rebound insomnia, or withdrawal symptoms
- WASO [2, 8]: not
- sTST [2, 8]: not
- IDSIQ sleepiness domain ([2]; 25 mg, both time points): numerical trend
- LPS after log-transformation ([2]; 25 mg, month 1 and month 3): significantly reduced; also recorded: significant after log-transformation
- WASO [2, 9]: significantly decreased
- sTST [2, 9]: increased
- decrease in LPS ([2]; 25 mg, vs placebo, without log-transformation): did not reach statistical significance
- activity in animal model of agitation [3]: active
- crossing of the blood-brain barrier (rat): cross the blood-brain barrier
- sleep promotion (effects on active wake, home cage activity, NREM sleep, REM sleep) (rat): promote sleep
- morning sleepiness (sleepiness the following day) ([4]; any dose vs placebo): no difference
- visual analog scales (VASs) on morning sleepiness, daytime alertness, and daytime ability to function [4]: nonsignificant increases
- wake time after sleep onset ([4]; phase 2, subjects with insomnia disorder): dose-dependent reduction
- next-morning residual drug effects ([4]; up to and including the highest dose (50 mg)): absence of such effects

Compound: Cc1ccc(-n2nccn2)c(C(=O)N2CCN(c3nc4cc(Cl)ccc4o3)CC[C@H]2C)c1 [suvorexant]
- halflife (t½) [5]: 12 h

Compound: Cc1ccc(-c2nc3ccc(C)cn3c2CC(=O)N(C)C)cc1 [zolpidem, reference compound]
- visual analog scales (VASs) on morning sleepiness, daytime alertness, and daytime ability to function [4]: pattern was also true
